Source: patent US11083729B2, “Methods of treating cancer with small molecule NF-κB inhibitors” (ImmuneTarget, Inc., priority 2017, dated 2021)

What was measured:
c-Rel protein = target: T1, c-Rel protein (Homo sapiens, UniProt Q04864); test: Electrophoretic Mobility Shift Assay (EMSA), c-Rel binding to CD28RE oligonucleotide; settings: 10 nM c-Rel protein
T1 sequence (Q04864 1-619): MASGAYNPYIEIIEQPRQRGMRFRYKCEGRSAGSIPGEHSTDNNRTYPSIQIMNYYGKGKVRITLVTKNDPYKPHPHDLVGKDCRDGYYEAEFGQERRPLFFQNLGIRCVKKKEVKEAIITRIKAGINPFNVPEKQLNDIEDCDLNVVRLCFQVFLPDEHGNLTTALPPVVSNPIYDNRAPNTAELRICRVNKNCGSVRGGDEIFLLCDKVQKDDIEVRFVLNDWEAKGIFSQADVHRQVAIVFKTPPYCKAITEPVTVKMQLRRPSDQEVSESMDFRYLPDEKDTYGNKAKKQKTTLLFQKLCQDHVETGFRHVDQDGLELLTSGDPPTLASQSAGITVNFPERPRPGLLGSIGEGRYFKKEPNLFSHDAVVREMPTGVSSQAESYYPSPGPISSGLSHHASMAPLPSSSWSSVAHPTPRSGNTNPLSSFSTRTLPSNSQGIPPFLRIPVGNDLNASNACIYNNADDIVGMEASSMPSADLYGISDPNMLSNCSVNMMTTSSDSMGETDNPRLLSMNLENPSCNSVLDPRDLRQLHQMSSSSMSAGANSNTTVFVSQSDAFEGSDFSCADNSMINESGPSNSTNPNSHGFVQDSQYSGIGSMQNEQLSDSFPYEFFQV
Experimental: DNA binding reaction (20 μL) was carried out in 1×DNA Binding Buffer (10 mM Tris, 40 mM NaCl, 1 mM EDTA, 4% glycerol) with 10 nM c-Rel protein and 0.5 ng phosphor-labeled CD28RE oligonucleotide for 10 minutes at room temperature in 96-well plates. Test compounds, in serial dilutions, were added into each well, and further incubated for 15 minutes before loading onto native 5% polyacrylamide gel. Electrophoresis proceeded for 2.5 hours at 160V. Radioactive signals were quantified using Phospho-Imager. IC50 of compounds of example 1 to 75 were determined by quantifying the intensity of Rel/NF-κB inhibition in EMSA using phospho-imager. An example of EMSA data of the present invention is shown for compound 6 in FIG. 2.

HepG2 = test: CellTiter-Glo IG50, Example 9 HCC panel, HepG2; assay type: cell-based; settings: Homo sapiens, HepG2, 72 hours
Experimental: (§1) The cells were harvested during the logarithmic growth period and counted. Cell concentrations were adjusted to the appropriate number in appropriate medium and 90 μl cell suspensions were added to 96-well plates. When cells were added, the plates were shaken gently to distribute the cells evenly. Cells were incubated at 37° C. and 5% CO2.
(§2) 3× serial dilutions of test compound stock solutions with respective solvents were prepared. The stock solutions were diluted with culture medium to generate 10× working solutions of the test compounds. 10 μl of the 10× test compound solutions were added to each well in triplicate for each concentration. Plates were incubated for 72 hours in a humidified incubator at 37° C. and 5% CO2.
(§3) CellTiter-Glo (CTG) solution was thawed and equilibrated to room temperature. 50 μl of CTG were added to each well and the contents were mixed for 2 minutes on a plate shaker. Cells were incubated for 10 minutes before luminescence signal was recorded using Envision.
(§4) Cell viability was plotted with GraphPad Prism version 5 and the IG50 was calculated for each cell line. The graphical curves were fitted using a nonlinear regression model with a sigmoidal dose response. IG50 is the concentration of test drug where 100×T/C=50 (the optical density of the test well after a 3-day period of exposure to test drug is T; the control optical density is C).
(§5) The cells were cultured in an atmosphere of 37° C., 5% CO2 and 95% humidity. All culture media and FBS were purchased from GIBCO, Hyclone or Sigma, USA. The media used for cell culture is described in the table below.
(§6) Following the cell culture protocol and data analysis methods described in Example 8, the following IG50 results (in μM) were observed: […]

Hep3B = test: CellTiter-Glo IG50, Example 9 HCC panel, Hep3B; assay type: cell-based; settings: Homo sapiens, 72 hours
Experimental: as §1, §2, §3, §4, §5, §6

PLC/PRF/5 = test: CellTiter-Glo IG50, Example 9 HCC panel, PLC/PRF/5; assay type: cell-based; settings: Homo sapiens, PLC/PRF/5, 72 hours
Experimental: as §1, §2, §3, §4, §5, §6

HUH7 = test: CellTiter-Glo IG50, Example 9 HCC panel, HUH7; assay type: cell-based; settings: Homo sapiens, Huh-7, HUH7, 72 hours
Experimental: as §1, §2, §3, §4, §5, §6

JHH5 = test: CellTiter-Glo IG50, Example 9 HCC panel, JHH5; assay type: cell-based; settings: JHH5, 72 hours
Experimental: as §1, §2, §3, §4, §5, §6

PBMC = test: CellTiter-Glo IG50, Example 9 HCC panel, PBMC; assay type: cell-based; settings: 72 hours
Experimental: as §1, §2, §3, §4, §5, §6

SNU878 = test: CellTiter-Glo IG50, Example 9 HCC panel, SNU878; assay type: cell-based; settings: SNU878, 72 hours
Experimental: as §1, §2, §3, §4, §5, §6

| Compound | IC50 (c-Rel protein) | further results |
| --- | --- | --- |
| CCCCCCCOc1ccc2cc3c(=O)[nH]c(=O)nc-3oc2c1Cl [IT-846] | – | IC50 (HepG2): 4270 nM; IC50 (Hep3B): 2340 nM; IC50 (PLC/PRF/5): 8510 nM; IC50 (HUH7): 3390 nM; IC50 (JHH5): > 16000 nM; IC50 (PBMC): 456 nM; IC50 (SNU878): > 16000 nM |
| CCCCCCOc1ccc2cc3c(=O)[nH]c(=O)nc-3oc2c1 [compound 21, 8-(n-hexyloxy)-2H-chromeno[2,3-d]pyrimidine-2,4(3H)-dione] | < 1000 nM | – |
| CCOc1ccc2cc3c(=O)[nH]c(=O)nc-3oc2c1 [compound 13, 8-ethoxy-2H-chromeno[2,3-d]pyrimidine-2,4(3H)-dione] | < 1000 nM | – |
| O=c1[nH]c(=S)nc2oc3cc(O)ccc3cc1-2 [compound 16, 8-hydroxy-2-thioxo-2H-chromeno[2,3-d]pyrimidin-4(3H)-one] | < 500 nM | – |
| CCCOc1cc2oc3nc(=O)[nH]c(=O)c-3cc2cc1Cl [compound 20, 7-chloro-8-propoxy-2H-chromeno[2,3-d]pyrimidine-2,4(3H)-dione] | < 1000 nM | – |
| CCCc1cc2oc3nc(=O)[nH]c(=O)c-3cc2cc1Cl [compound 25, 7-chloro-8-propyl-2H-chromeno[2,3-d]pyrimidine-2,4(3H)-dione] | < 1000 nM | – |
| COCCCCOc1ccc2cc3c(=O)[nH]c(=O)nc-3oc2c1Cl [compound 66, 9-chloro-8-(4-methoxybutoxy)-2H-chromeno[2,3-d]pyrimidine-2,4(3H)-dione] | < 1000 nM | – |

Now from value to compound, other results behind:

| IC50 (c-Rel protein) | Compound | further results |
| --- | --- | --- |
| < 5000 nM | O=C(O)COc1ccc2cc3c(=O)[nH]c(=O)nc-3oc2c1Cl [compound 56] | – |
| < 500 nM | CCCCCCCOc1ccc2cc3c(=O)[nH]c(=O)nc-3oc2c1Cl [compound 42] | – |
| < 500 nM | CCOc1cc2oc3nc(=O)[nH]c(=O)c-3cc2cc1F [compound 28, 8-ethoxy-7-fluoro-2H-chromeno[2,3-d]pyrimidine-2,4(3H)-dione] | – |
| < 1000 nM | COCCCCOc1ccc2cc3c(=O)[nH]c(=O)nc-3oc2c1 [compound 67] | – |
| < 500 nM | CCCCCOc1ccc2cc3c(=O)[nH]c(=O)nc-3oc2c1Cl [compound 39] | – |
| < 5000 nM | CC(=O)OCCCOc1ccc2cc3c(=O)[nH]c(=O)nc-3oc2c1Cl [compound 59] | – |
| < 1000 nM | CC(C)CCCOc1cc2oc3nc(=O)[nH]c(=O)c-3cc2cc1F [compound 35] | – |
| < 500 nM | CC(C)CCOc1ccc2cc3c(=O)[nH]c(=O)nc-3oc2c1Cl [compound 40] | – |
